Measurements published in patent publication US10131679B2, “Substituted dihydropyrrolopyrazole compound” (UBE INDUSTRIES, LTD., priority 2014, dated 2018).

Assays:
[1] = test system: human breast cancer cell line (MCF-7); test: Human breast cancer (MCF-7) cell growth inhibition test; type: cell-based; conditions: MCF7, 72 h, MCF-7, culture for 3 days, sulforhodamine B absorbance
Method: Human Breast Cancer (MCF-7) Cell Growth Inhibition Test
The measurement of a human breast cancer cell growth inhibitory effect was carried out by modifying the method of Simak et al. (Cancer Research, 69, 6208 (2009)).
A human breast cancer cell line (MCF-7) manufactured by DS Pharma Biomedical Co., Ltd., Cat. No. EC86012803, was cultured in MEM (manufactured by GIBCO/Thermo Fisher Scientific, Inc., REF. 11095-080) medium containing 10% FBS (manufactured by GIBCO/Thermo Fisher Scientific, Inc., REF. 10082-147), nonessential amino acids (manufactured by GIBCO/Thermo Fisher Scientific, Inc., REF. 11140-050), and 1% penicillin/streptomycin/amphotericin B (manufactured by GIBCO/Thermo Fisher Scientific, Inc., REF. 15240-096) and inoculated at 3.0×10^3 cells/well to a 96-well plate (manufactured by Corning Inc., REF. 353072). After overnight culture in a carbon dioxide incubator, it was replaced with a fresh MEM medium containing 10% FBS, nonessential amino acids, and 1% penicillin/streptomycin/amphotericin B on the next day, and a test compound dissolved in DMSO (manufactured by Wako Pure Chemical Industries, Ltd., Code No. 043-07216) (final DMSO concentration: 0.1%) was added and left standing in a carbon dioxide incubator. After culture for 3 days, the absorbance of each well was measured by using In Vitro Toxicology Assay Kit Sulforhodamine B based (manufactured by Sigma-Aldrich Co. LLC., Pcode 1001910706).
(§1) The rate of inhibition of cell growth at each concentration was calculated from the test compound concentration and the absorbance of sulforhodamine B, and the concentration of the test compound necessary for inhibiting 50% of cell growth (IC50 value) was calculated by using EXSUS (version 8.0.0 or version 8.0.1, manufactured by CAC Exicare Corp.).

[2] = test system: Human keratinocytes (NHEK-Neo Pooled); test: Human keratinocyte growth inhibition assay; type: cell-based; conditions: 48 h, culture for 2 days, Cell Counting Kit-8
Method: Human Keratinocyte Growth Inhibition Assay
The measurement of a human keratinocyte growth inhibitory effect was carried out by modifying the method of Schafer et al. (British Journal of Pharmacology, 159, 842 (2011)).
Human keratinocytes (NHEK-Neo Pooled, manufactured by Lonza Group AG, Cat. No. 00192906) were cultured in KGM-Gold Bullet Kit (manufactured by Lonza Group AG, Cat. No. 00192060) and inoculated at 2.0×10^3 cells/well to a 96-well plate. After overnight culture in a carbon dioxide incubator, a test compound dissolved in DMSO (final DMSO concentration: 0.1%) was added and left standing in a carbon dioxide incubator. After culture for 2 days, the absorbance thereof was measured by using Cell Counting Kit-8 (343-07623 manufactured by Dojindo Laboratories)).
as §1, with “Cell Counting Kit-8,” for “sulforhodamine B,”

[3] = test system: IL-6 production in rat adjuvant arthritis model; test: IL-6 production inhibition test in rat adjuvant arthritis model; type: in vivo, LEW rats; conditions: single dose, left ankle, read-out: rate of inhibition of IL-6 production; for inhibition in vivo at 3 mg/kg: administration of 3 mg/kg
Method: IL-6 Production Inhibition Test in Rat Adjuvant Arthritis Model
A single-dose drug efficacy test using rat adjuvant arthritis models was carried out by modifying the method of Magari. K et al. (J. Rheumatol. 30 (10), 2193 (2003)).
LEW rats (female, supplied by Charles River Laboratories Japan, Inc.) were used as laboratory animals. An adjuvant prepared from heat-killed bacteria of Mycobacterium butyricum (264010 manufactured by Difco Laboratories Ltd.) and liquid paraffin (manufactured by Wako Pure Chemical Industries, Ltd., Code No. 128-04375) was subcutaneously administered as a phlogogenic material to the right hind leg footpads of the rats under inhalation anesthesia with isoflurane (manufactured by Wako Pure Chemical Industries, Ltd., Code No. 099-06571) to prepare arthritis models. Approximately 2 weeks later, left paw edema was measured with a paw volume meter (model TK-101CMP manufactured by Unicorn Co., Ltd.), and grouping was performed such that the average volume of left paw edema was equal among groups. A test compound or only a solvent was administered, after a certain time, they were sacrificed by exsanguination from the abdomens under isoflurane anesthesia, and the left ankles were collected, chopped, and frozen by using liquid nitrogen. The collected left ankle portions were disrupted in CRYOPress (model CP-100WP manufactured by Microtec Co., Ltd.), then supplemented with a buffer solution, shaken overnight at 4° C., and then centrifuged to collected a supernatant. The preparation of the buffer solution was performed by mixing a Tris buffer solution (pH 7.4), sodium chloride (NaCl), phenyl methyl sulfonyl fluoride (PMSF), Triton X-100, EDTA-free complete tablets (manufactured by F. Hoffmann-La Roche, Ltd., REF. 11 873 580 001), and Otsuka distilled water (manufactured by Otsuka Pharmaceutical Co., Ltd., product No. 1323). IL-6 in the collected supernatant was measured by using a sandwich ELISA kit (manufactured by R&D Systems, Inc., Catalog No. S6050).
The IL-6 content of each sample was calculated from the calibration curve of Standard IL-6 included in the kit. When the amount of IL-6 produced in the solvent administration control group was defined as 100%, the rate of inhibition of IL-6 production (%) at each dose of the test compound was calculated.

CC1(C)c2[nH]nc(NC(=O)C3([Si](C)(C)C)CCC3)c2CN1C(=O)N[C@H](CCO)c1ccccc1 [IV-227, (R)—N-(3-Hydroxy-1-phenylpropyl)-6,6-dimethyl-3-[1-(trimethylsilyl)cyclobutanecarboxamido]-4,6-dihydropyrrolo[3,4-c]pyrazole-5(1H)-carboxamide] showed an IC50 [1] of at most 500 nM, an IC50 [2] of at most 500 nM and an inhibition in vivo at 3 mg/kg [3] of at least 50%.

Work on CC(C)(O)[C@@H](NC(=O)N1Cc2c(NC(=O)C3([Si](C)(C)C)CCC3)n[nH]c2C1(C)C)c1ccccc1 [IV-171, (S)—N-(2-Hydroxy-2-methyl-1-phenylpropyl)-6,6-dimethyl-3-[1-(trimethylsilyl)cyclobutanecarboxamido]-4,6-dihydropyrrolo[3,4-c]pyrazole-5(1H)-carboxamide] yielded an IC50 [1] of at most 500 nM, an IC50 [2] of at most 500 nM and an inhibition in vivo at 10 mg/kg ([3]; administration of 10 mg/kg) of at least 50%.

For CCOC[C@@H](NC(=O)N1Cc2c(NC(=O)C3([Si](C)(C)C)CCC3)n[nH]c2C1(C)C)c1ccccc1 [IV-139, (S)—N-(2-Ethoxy-1-phenylethyl)-6,6-dimethyl-3-[1-(trimethylsilyl)cyclobutanecarboxamido]-4,6-dihydropyrrolo[3,4-c]pyrazole-5(1H)-carboxamide], the IC50 [2] was at most 500 nM and the inhibition in vivo at 3 mg/kg [3] was at least 50%.

COC[C@@H](NC(=O)N1Cc2c(NC(=O)C3([Si](C)(C)C)CCC3)n[nH]c2C1(C)C)c1ccccc1 [IV-123, (S)—N-(2-Methoxy-1-phenylethyl)-6,6-dimethyl-3-[1-(trimethylsilyl)cyclobutanecarboxamido]-4,6-dihydropyrrolo[3,4-c]pyrazole-5(1H)-carboxamide] showed an IC50 [1] of at most 500 nM, an IC50 [2] of at most 500 nM and an inhibition in vivo at 3 mg/kg [3] of at least 50%.
